Assay results reported in patent US20240350402A1, “TOPICAL DRUG TREATMENT TO PREVENT OR REDUCE CORNEAL SCARRING” (The Cleveland Clinic Foundation, priority 2021, published 2024).

Legend:
collagen type IV = assay: -9D PRK model: IHC stromal collagen type IV pixels (ImageJ); assay type: in vivo, rabbit; conditions: losartan-treated group, one month
Protocol: No corticosteroids were administered in either group.
Corneal Cryo-Fixation and Sectioning Rabbits were euthanized while under ketamine-xylazine general anesthesia with 100 mg/kg Beuthanasia (Shering-Plough, Kenilworth, NJ, USA) by intravenous injection followed by bilateral pneumothorax. The corneo-scleral rims were removed with sharp Westcott scissors (Fairfield, CT, USA) and 0.12 forceps (Storz, St Louis, MO, USA). […]
All images were converted to 300 DPI 900 pixel width×672 pixel height images with Photoshop 22.1.1 (Adobe, San Jose, CA). The mean pixels of stromal α-SMA or stromal collagen type IV were determined in a 900-pixel wide×235-pixel high rectangle (for either α-SMA or collagen type IV quantitation) with ImageJ in three sections for each cornea using the image panels showing only the color of interest. […]

[1] = system: α-SMA-positive myofibroblasts; assay: Alkali burn model: IHC α-SMA-positive stromal area and intensity (ImageJ); assay type: in vivo, rabbit; conditions: one month
Protocol: Alkali injuries were produced in one eye of rabbits with previously published methods^10 using 1N sodium hydroxide (Sigma, St. Louis, MO) in balanced salt solution (BSS, 0.64% sodium chloride, 0.075% potassium chloride, 0.048% calcium chloride dihydrate, […] magnesium chloride hexahydrate, 0.39% sodium acetate trihydrate, 0.17% sodium citrate dihydrate, pH 7.5, Alcon, H. Worth, TX) and a 5 mm diameter circular Whatman No. 1 filter paper (Cat #1001-6508, Fisher Scientific) wetted with 100 μl of 1N NaOH solution. Following the alkali burn injury, the cornea was irrigated profusely with BSS. Each injured cornea also received one drop of ciprofloxacin (Alcon, Ft. Worth, TX, USA) ten minutes after surgery and four times a day for one week and at least 15 minutes apart from the study medications.
Worth TX), at least 5 minutes apart, or 4) 50 μl of BSS. […]
The area of the α-SMA-positive stroma in mm^2 and the total α-SMA opacity in pixels were quantitated using standardized images obtained with a 10× objective on a Leica DM6B upright microscope equipped with an automated stage and Leica 7000 T camera using the LAS X software (Leica Microsystems, GmbH, Wetzlar, Germany). The means of three central corneal sections were analyzed from each cornea to provide the area of α-SMA-positive stroma and the total α-SMA opacity. The area of α-SMA-positive stroma in mm^2 for each cornea was determined from full diameter and thickness central corneal section images (all converted to 300 DPI, 885 width×500 height, files with identical +50% brightness increase in Photoshop for all images) with the ImageJ 1.53a analysis software using the freehand selection tool to delineate the area(s) of α-SMA-positive staining. […] In these same sections for each cornea, the total α-SMA-positive intensity in pixels was also determined with ImageJ, similarly by using the summation if separate α-SMA-positive areas were present. […]

[2] = system: rabbit corneas after -9D PRK; assay: -9D PRK model: slit lamp central opacity (ImageJ); assay type: in vivo; conditions: topical 0.8 mg/ml losartan six times a day, one month
Protocol: Animal procedures were approved by the Institutional Animal Care and Use Committee at the Cleveland Clinic Foundation and animals were treated in accordance with the tenets of the Association for Research in Vision and Ophthalmology Statement for the Use of Animals in Ophthalmic and Vision Research. Twelve female 12- to 15-week-old New Zealand white rabbits weighing 2.5 to 3 kg each were included. Starting 24 hours prior to surgery and continuing 5 days after PRK, all rabbits received 60 mL children's liquid acetaminophen (Johnson & Johnson, Ft. Washington, PA, USA) per 1 L of drinking water. One eye of each rabbit was randomly selected to have −9.0 D (on myopia scale) PRK and received 2 drops of topical 1% proparacaine hydrochloride (Alcon, Fort Worth, TX, USA) prior to the surgery. […]
At 1 month after PRK and treatment, each rabbit was placed under ketamine-xylazine general anesthesia and the eyes were dilated with two drops of 1% tropicamide (Akorn Co., Lake Forest, IL, USA) for 30 minutes. […] For each study cornea, the mean opacity in pixels in the central 3.5 mm of the PRK ablated zone was determined by using ImageJ 1.53a analysis software (National Institutes of Health, Bethesda, MD, USA). […]

For `CCCCc1nc(Cl)c(CO)n1Cc1ccc(-c2ccccc2-c2nn[nH]n2)cc1` [losartan], the “collagen type IV localization (IHC)” value (collagen type IV) was “localized primarily to the epithelial basement membrane”, the “total α-SMA area vs vehicle control group” value [1] was “trend” and the “localization of α-SMA-positive myofibroblasts in the stroma” value ([1]; topical six times per day) was “confined mostly to the posterior half of the stroma”. The “mean pixels of opacity within the analyzed 3.5 mm diameter area (mean±SEM)” value [2] was 77±3 pixels.
